Measurements taken from US20240368159A1, “HPK1 DEGRADERS, COMPOSITIONS COMPRISING THE HPK1 DEGRADER, AND METHODS OF USING THE SAME” (BIOFRONT LTD, priority 2021, published 2024).

biological target: T1, HPK1 protein (Homo sapiens, UniProt Q92918); assay: HPK1 enzyme inhibition assay (ADP-Glo); type: biochemical; conditions: MBP substrate, ATP, ADP-Glo readout
T1 construct: purchased Signal Chem M23-11G-10
T1 sequence (Q92918 1-346 limits assumed): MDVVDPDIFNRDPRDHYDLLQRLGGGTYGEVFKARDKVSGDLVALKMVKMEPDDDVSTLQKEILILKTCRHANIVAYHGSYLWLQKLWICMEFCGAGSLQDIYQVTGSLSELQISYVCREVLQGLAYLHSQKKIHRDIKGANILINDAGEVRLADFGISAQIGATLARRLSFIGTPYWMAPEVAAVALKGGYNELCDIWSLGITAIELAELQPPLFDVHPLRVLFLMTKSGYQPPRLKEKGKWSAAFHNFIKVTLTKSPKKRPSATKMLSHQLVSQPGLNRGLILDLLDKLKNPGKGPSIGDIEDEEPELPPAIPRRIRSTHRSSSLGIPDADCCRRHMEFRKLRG
Experimental: The compound was dissolved in 100% DMSO at the concentration of 10 mM. The HPK1 protein was purchased from Signal Chem (M23-11G-10). 2.5 μL per well of 2×HPK1 protein was added to assay plate containing the test compound, centrifuged at 1500 rpm for 1 minute, and then incubated at 25° C. for 60 minutes. MBP protein was purchased from Signal Chem (M42-51N) and ATP was purchased from Promega (V9102). The two were added 2.5 μL per well mixture of 2×MBP (0.2 ug/ul) and ATP (20 μM), centrifuged at 1500 rpm for 1 minute, then incubated at 25° C. for 60 minutes. Then added 5 μL of ADP-Glo from Promega (V9102) to the assay plate and depleted the unconsumed ATP for 60 minutes. Then centrifuged at 1500 rpm for 1 minute and incubated at 25° C. for 60 minutes. Finally, 10 μL of the kinase assay reagent from Promega (V9102) was added to the assay plate to convert ADP to ATP, centrifuged at 1500 rpm for 1 minute, incubate at 25° C. for 40 minutes. After 40 minutes incubation, the […] was determined. Based on the results, the IC50 value of the compound was calculated.

Compound	IC50 [nM]
CCc1c[nH]c2ncc(-c3cccc(N4CCN(Cc5ccc6c(c5)C(=O)N(C5CCC(=O)NC5=O)C6=O)CC4=O)c3)c(Cl)c12 (centres unmarked) [Example 90, 5-((4-(3-(4-chloro-3-ethyl-1H-pyrrolo[2,3-b]pyridin-5-yl)phenyl)-3-oxopiperazin-1-yl)methyl)-2-(2,6-dioxopiperidin-3-yl)isoindoline-1,3-dione]	10 to 100
CCc1c[nH]c2ncc(-c3cccc(N4CCN(CC(=O)N5CCN(c6ccc7c(c6)C(=O)N(C6CCC(=O)NC6=O)C7=O)CC5)CC4=O)c3)c(Cl)c12 (centres unmarked) [Example 34, 5-(4-(2-(4-(3-(4-chloro-3-ethyl-1H-pyrrolo[2,3-b]pyridin-5-yl)phenyl)-3-oxopiperazin-1-yl)acetyl)piperazin-1-yl)-2-(2,6-dioxopiperidin-3-yl)isoindoline-1,3-dione]	10 to 100
O=C1CCC(N2C(=O)c3ccc(CN4CCC(OC(=O)N5CCN(c6cccc(-c7cnc8[nH]cc(C9CC9)c8c7Cl)c6)C(=O)C5)CC4)cc3C2=O)C(=O)N1 (centres unmarked) [Example 94, 1-((2-(2,6-dioxopiperidin-3-yl)-1,3-dioxoisoindolin-5-yl)methyl)piperidin-4-yl 4-(3-(4-chloro-3-cyclopropyl-1H-pyrrolo[2,3-b]pyridin-5-yl)phenyl)-3-oxopiperazine-1-carboxylate]	10 to 100
O=C1CCN(c2cnc3cc(C4CCN(CCCN5CCN(c6cccc(-c7cnc8[nH]cc(C9CC9)c8c7Cl)c6)C(=O)C5)CC4)ccn23)C(=O)N1 [Example 96, 1-(7-(1-(3-(4-(3-(4-chloro-3-cyclopropyl-1H-pyrrolo[2,3-b]pyridin-5-yl)phenyl)-3-oxopiperazin-1-yl)propyl)piperidin-4-yl)imidazo[1,2-a]pyridin-3-yl)dihydro pyrimidine-2,4 (1H,3H)-dione]	≤ 10
CCc1c[nH]c2ncc(-c3cccc(N4CCN(C(=O)COC5CN(c6cccc7c6C(=O)N(C6CCC(=O)NC6=O)C7=O)C5)CC4=O)c3)c(Cl)c12 (centres unmarked) [Example 18, 4-(3-(2-(4-(3-(4-chloro-3-ethyl-1H-pyrrolo[2,3-b]pyridin-5-yl)phenyl)-3-oxopiperazin-1-yl)-2-oxoethoxy)azetidin-1-yl)-2-(2,6-dioxopiperidin-3-yl)isoindoline-1,3-dione]	10 to 100
CCc1c[nH]c2ncc(-c3cccc(N4CCN(CC5CN(c6ccc7c(c6)C(=O)N(C6CCC(=O)NC6=O)C7=O)C5)CC4=O)c3)c(Cl)c12 (centres unmarked) [Example 89]	10 to 100
O=C1CCC(N2C(=O)c3ccc(CCN4CCC(OC(=O)N5CCN(c6cccc(-c7cnc8[nH]cc(C9CC9)c8c7Cl)c6)C(=O)C5)CC4)cc3C2=O)C(=O)N1 (centres unmarked) [Example 98, 1-(2-(2-(2,6-dioxopiperidin-3-yl)-1,3-dioxoisoindolin-5-yl)ethyl)piperidin-4-yl 4-(3-(4-chloro-3-cyclopropyl-1H-pyrrolo[2,3-b]pyridin-5-yl)phenyl)-3-oxopiperazine-1-carboxylate]	10 to 100
CCc1c[nH]c2ncc(-c3cccc(N4CCN(C(=O)COC5CCN(c6cccc7c6C(=O)N(C6CCC(=O)NC6=O)C7=O)CC5)CC4=O)c3)c(Cl)c12 (centres unmarked) [Example 17, 4-(4-(2-(4-(3-(4-chloro-3-ethyl-1H-pyrrolo[2,3-b]pyridin-5-yl)phenyl)-3-oxopiperazin-1-yl)-2-oxoethoxy)piperidin-1-yl)-2-(2,6-dioxopiperidin-3-yl)isoindoline-1,3-dione]	100 to 1000
CCc1c[nH]c2ncc(-c3cccc(N4CCN(CCNC(=O)C5CCN(c6ccc7c(c6)C(=O)N(C6CCC(=O)NC6=O)C7=O)CC5)CC4=O)c3)c(Cl)c12 (centres unmarked) [Example 37]	> 1000
CCc1c[nH]c2ncc(-c3cccc(N4CCN(CCc5ccc6c(c5)C(=O)N(C5CCC(=O)NC5=O)C6=O)CC4=O)c3)c(Cl)c12 (centres unmarked) [Example 97, 5-(2-(4-(3-(4-chloro-3-ethyl-1H-pyrrolo[2,3-b]pyridin-5-yl)phenyl)-3-oxopiperazin-1-yl)ethyl)-2-(2,6-dioxopiperidin-3-yl)isoindoline-1,3-dione]	≤ 10

Other lines, results leading:

IC50 [nM]	Compound
10 to 100	CCc1c[nH]c2ncc(-c3cccc(N4CCN(C(=O)CCOCCOCc5cn(-c6cccc7c6CN(C6CCC(=O)NC6=O)C7=O)nn5)CC4=O)c3)c(Cl)c12 (centres unmarked) [Example 13, 3-(4-(4-((2-(3-(4-(3-(4-chloro-3-ethyl-1H-pyrrolo[2,3-b]pyridin-5-yl)phenyl)-3-oxopiperazin-1-yl)-3-oxopropoxy)ethoxy)methyl)-1H-1,2,3-triazol-1-yl)-1-oxoisoindolin-2-yl)piperidine-2,6-dione]
10 to 100	CCc1c[nH]c2ncc(-c3cccc(N4CCN(C(=O)CCCCCOc5ccc6c(c5)C(=O)N(C5CCC(=O)NC5=O)C6)CC4=O)c3)c(Cl)c12 (centres unmarked) [Example 68, 3-(6-((6-(4-(3-(4-chloro-3-ethyl-1H-pyrrolo[2,3-b]pyridin-5-yl)phenyl)-3-oxopiperazin-1-yl)-6-oxohexyl)oxy)-1-oxoisoindolin-2-yl)piperidine-2,6-dione]
≤ 10	CCc1c[nH]c2ncc(-c3cccc(N4CCN(C(=O)COc5ccc6c(c5)C(=O)N(C5CCC(=O)NC5=O)C6)CC4=O)c3)c(Cl)c12 (centres unmarked) [Example 66]
≤ 10	CCc1c[nH]c2ncc(-c3cccc(N4CCN(C(=O)COc5cccc6c5CN(C5CCC(=O)NC5=O)C6=O)CC4=O)c3)c(Cl)c12 (centres unmarked) [Example 3]
10 to 100	CCc1c[nH]c2ncc(-c3cccc(N4CCN(C(=O)CCCCCCCOc5cccc6c5C(=O)N(C5CCC(=O)NC5=O)C6=O)CC4=O)c3)c(Cl)c12 (centres unmarked) [Example 9, 4-((8-(4-(3-(4-chloro-3-ethyl-1H-pyrrolo[2,3-b]pyridin-5-yl)phenyl)-3-oxopiperazin-1-yl)-8-oxooctyl)oxy)-2-(2,6-dioxopiperidin-3-yl)isoindoline-1,3-dione]
10 to 100	CCc1c[nH]c2ncc(-c3cccc(N4CCN(C(=O)CCCOc5ccc6c(c5)C(=O)N(C5CCC(=O)NC5=O)C6)CC4=O)c3)c(Cl)c12 (centres unmarked) [Example 67]
10 to 100	CCc1c[nH]c2ncc(-c3cccc(N4CCN(C(=O)CCN5CCN(c6cccc7c6C(=O)N(C6CCC(=O)NC6=O)C7=O)CC5)CC4=O)c3)c(Cl)c12 (centres unmarked) [Example 20, 4-(4-(3-(4-(3-(4-chloro-3-ethyl-1H-pyrrolo[2,3-b]pyridin-5-yl)phenyl)-3-oxopiperazin-1-yl)-3-oxopropyl)piperazin-1-yl)-2-(2,6-dioxopiperidin-3-yl)isoindoline-1,3-dione]
10 to 100	CCc1c[nH]c2ncc(-c3cccc(N4CCN(C(=O)CCCCCCOc5cccc6c5CN(C5CCC(=O)NC5=O)C6=O)CC4=O)c3)c(Cl)c12 (centres unmarked) [Example 6, 3-(4-((7-(4-(3-(4-chloro-3-ethyl-1H-pyrrolo[2,3-b]pyridin-5-yl)phenyl)-3-oxopiperazin-1-yl)-7-oxoheptyl)oxy)-1-oxoisoindolin-2-yl)piperidine-2,6-dione]
10 to 100	CCc1c[nH]c2ncc(-c3cccc(N4CCN(C(=O)CCCCCN(C)c5cccc6c5CN(C5CCC(=O)NC5=O)C6=O)CC4=O)c3)c(Cl)c12 (centres unmarked) [Example 14, 3-(4-((6-(4-(3-(4-chloro-3-ethyl-1H-pyrrolo[2,3-b]pyridin-5-yl)phenyl)-3-oxopiperazin-1-yl)-6-oxohexyl)(methyl)amino)-1-oxoisoindolin-2-yl)piperidine-2,6-dione]
10 to 100	CCc1c[nH]c2ncc(-c3cccc(N4CCN(C(=O)CCCCCCCOc5ccc6c(c5)C(=O)N(C5CCC(=O)NC5=O)C6)CC4=O)c3)c(Cl)c12 (centres unmarked) [Example 65, 3-(6-((8-(4-(3-(4-chloro-3-ethyl-1H-pyrrolo[2,3-b]pyridin-5-yl)phenyl)-3-oxopiperazin-1-yl)-8-oxooctyl)oxy)-1-oxoisoindolin-2-yl)piperidine-2,6-dione]
10 to 100	CCc1c[nH]c2ncc(-c3cccc(N4CCN(C(=O)CCCN(C)c5cccc6c5CN(C5CCC(=O)NC5=O)C6=O)CC4=O)c3)c(Cl)c12 (centres unmarked) [Example 15, 3-(4-((4-(4-(3-(4-chloro-3-ethyl-1H-pyrrolo[2,3-b]pyridin-5-yl)phenyl)-3-oxopiperazin-1-yl)-4-oxobutyl)(methyl)amino)-1-oxoisoindolin-2-yl)piperidine-2,6-dione]
100 to 1000	CCc1c[nH]c2ncc(-c3cccc(N4CCN(C(=O)CCCCCCCNc5cccc6c5CN(C5CCC(=O)NC5=O)C6=O)CC4=O)c3)c(Cl)c12 (centres unmarked) [Example 10, 3-(4-((8-(4-(3-(4-chloro-3-ethyl-1H-pyrrolo[2,3-b]pyridin-5-yl)phenyl)-3-oxopiperazin-1-yl)-8-oxooctyl)amino)-1-oxoisoindolin-2-yl)piperidine-2,6-dione]
100 to 1000	CCc1c[nH]c2ncc(-c3cccc(N4CCN(C(=O)CCCCCCCCCOc5cccc6c5CN(C5CCC(=O)NC5=O)C6=O)CC4=O)c3)c(Cl)c12 (centres unmarked) [Example 7, 3-(4-((10-(4-(3-(4-chloro-3-ethyl-1H-pyrrolo[2,3-b]pyridin-5-yl)phenyl)-3-oxopiperazin-1-yl)-10-oxodecyl)oxy)-1-oxoisoindolin-2-yl)piperidine-2,6-dione]
